According to PMC5220248 (Angewandte Chemie (International ed. in English), 2016):
Residues, ends and D or L forms follow the SMILES beside them.

Tests used:
[1] = human, serum
HIV Rev protein = HIV Rev protein (Human immunodeficiency virus type 1 group M subtype B, UniProt P04618); format: binding

C[C@@H]1NC(=O)[C@H](C)NC(=O)[C@@H]2CCCN2C(=O)[C@H](Cc2ccc(O)cc2)NC(=O)[C@H](CCCNC(=N)N)NC(=O)[C@H](Cc2ccc(O)cc2)NC(=O)[C@H](CO)NC1=O [cRBP, cyclo-YPAASYR] (cyclo(AASYRYP))
half-life [1]: ~30 h | IC50 (HIV Rev protein): 28 ± 5 nM
